Here are results for 13 compounds from patent US12404289B2 (Gilead Sciences, Inc., priority 2020, dated 2025).

Molecules are shown by their SMILES.

By EC50 is commonly meant the midpoint of the concentration-response curve.

The first experiment deals with Respiratory syncytial virus (RSV) strain A2. The experiment is described as follows: Hep-2 RSV2 384-well assay (EC50-HEP2-384). In kind it is cell-based. Particulars: HEp-2 cells, RSV A2, MOI=4, 4 days, Table 3.
As to `CCC(CC)COC(=O)[C@H](C)N[P@](=O)(OC[C@H]1O[C@@](C#N)(c2ccc3c(N)ncnn23)[C@H](OC(C)=O)[C@@H]1OC(C)=O)Oc1cccc2c1CCCC2` [Example 143, (2R,3R,4R,5R)-2-(4-aminopyrrolo[2,1-f][1,2,4]triazin-7-yl)-2-cyano-5-((((S)—(((S)-1-(2-ethylbutoxy)-1-oxopropan-2-yl)amino)((5,6,7,8-tetrahydronaphthalen-1-yl)oxy)phosphoryl)oxy)methyl)tetrahydrofuran-3,4-diyl Diacetate], the EC50 came out at 737 nM.
For the compound `CCC(CC)COC(=O)[C@H](C)N[P@@](=O)(OC[C@H]1O[C@@](C#N)(c2ccc3c(N)ncnn23)[C@H](OC(=O)C(C)C)[C@@H]1OC(=O)C(C)C)Oc1cccc2c1CCCC2` [Example 146, (2R,3R,4R,5R)-2-(4-aminopyrrolo[2,1-f][1,2,4]triazin-7-yl)-2-cyano-5-((((R)—(((S)-1-(2-ethylbutoxy)-1-oxopropan-2-yl)amino)((5,6,7,8-tetrahydronaphthalen-1-yl)oxy)phosphoryl)oxy)methyl)tetrahydrofuran-3,4-diyl bis(2-methylpropanoate)], the EC50 came out at 459 nM. This EC50 is about 1.6-fold lower than that of the compound before.
For the compound `CCC(CC)COC(=O)[C@H](C)N[P@@](=O)(OC[C@H]1O[C@@](C#N)(c2ccc3c(N)ncnn23)[C@H](OC(C)=O)[C@@H]1OC(C)=O)Oc1cccc2c1CCCC2` [Example 147, (2R,3R,4R,5R)-2-(4-aminopyrrolo[2,1-f][1,2,4]triazin-7-yl)-2-cyano-5-((((R)—(((S)-1-(2-ethylbutoxy)-1-oxopropan-2-yl)amino)((5,6,7,8-tetrahydronaphthalen-1-yl)oxy)phosphoryl)oxy)methyl)tetrahydrofuran-3,4-diyl Diacetate], the midpoint of the response, the EC50, lay at 334 nM.

The experiment is the same for the next values; noted with them: human respiratory syncytial virus, HEp-2, 96 h, HEp-2 cells, RSV A2, MOI=4, 4 days, Table 3.
For `CCC(CC)COC(=O)[C@H](C)NP(=O)(OC[C@H]1O[C@@](C#N)(c2ccc3c(N)ncnn23)[C@H](OC(=O)C(C)C)[C@@H]1OC(=O)C(C)C)Oc1ccc2c(c1)CCCC2` (stereo partly drawn) [Example 132, (2R,3R,4R,5R)-2-(4-aminopyrrolo[2,1-f][1,2,4]triazin-7-yl)-2-cyano-5-((((((S)-1-(2-ethylbutoxy)-1-oxopropan-2-yl)amino)((5,6,7,8-tetrahydronaphthalen-2-yl)oxy)phosphoryl)oxy)methyl) tetrahydrofuran-3,4-diyl bis(2-methylpropanoate)], the EC50 came out at 126 nM.
Regarding `CCC(=O)O[C@H]1[C@@H](OC(=O)CC)[C@](C#N)(c2ccc3c(N)ncnn23)O[C@@H]1COP(=O)(N[C@@H](C)C(=O)OCC1CCC1)Oc1ccccc1` (stereo partly drawn) [Example 134, (2R,3R,4R,5R)-2-(4-aminopyrrolo[2,1-f][1,2,4]triazin-7-yl)-2-cyano-5-((((((S)-1-(cyclobutylmethoxy)-1-oxopropan-2-yl)amino)(phenoxy)phosphoryl)oxy)methyl)tetrahydrofuran-3,4-diyl Dipropionate], the EC50 stood at 93.8 nM.
The compound `CC(C)COC(=O)[C@H](C)NP(=O)(OC[C@H]1O[C@@](C#N)(c2ccc3c(N)ncnn23)[C@H](OC(=O)CC(C)C)[C@@H]1OC(=O)CC(C)C)Oc1ccc(C(C)(C)C)cc1` (stereo partly drawn) [Example 139, (2R,3R,4R,5R)-2-(4-aminopyrrolo[2,1-f][1,2,4]triazin-7-yl)-5-((((4-(tert-butyl)phenoxy)(((S)-1-isobutoxy-1-oxopropan-2-yl)amino)phosphoryl)oxy)methyl)-2-cyanotetrahydrofuran-3,4-diyl bis(3-methylbutanoate)] came in with an EC50 of 194 nM.
`CCC(CC)COC(=O)[C@H](C)NP(=O)(OC[C@H]1O[C@@](C#N)(c2ccc3c(N)ncnn23)[C@H](O)[C@@H]1O)Oc1ccc(OC2CCCCC2)cc1` (stereo partly drawn) [Example 140, 2-ethylbutyl ((((2R,3S,4R,5R)-5-(4-aminopyrrolo[2,1-f][1,2,4]triazin-7-yl)-5-cyano-3,4-dihydroxytetrahydrofuran-2-yl)methoxy)(4-(cyclohexyloxy)phenoxy)phosphoryl)-L-alaninate] yielded an EC50 of 302 nM. Against the preceding compound, the EC50 is about 1.6-fold higher.
The same measure, in the same setting: the value for `COCCOC(=O)[C@H](C)NP(=O)(OC[C@H]1O[C@@](C#N)(c2ccc3c(N)ncnn23)[C@H](O)[C@@H]1O)Oc1ccc(C(C)(C)C)cc1` (stereo partly drawn) [Example 141, 2-methoxyethyl ((((2R,3S,4R,5R)-5-(4-aminopyrrolo[2,1-f][1,2,4]triazin-7-yl)-5-cyano-3,4-dihydroxytetrahydrofuran-2-yl)methoxy)(4-(tert-butyl)phenoxy)phosphoryl)-L-alaninate] was 305 nM; that for `C[C@H](NP(=O)(OC[C@H]1O[C@@](C#N)(c2ccc3c(N)ncnn23)[C@H](O)[C@@H]1O)Oc1ccc(C(C)(C)C)cc1)C(=O)OC1CCCCC1` (stereo partly drawn) [Example 142, cyclohexyl ((((2R,3S,4R,5R)-5-(4-aminopyrrolo[2,1-f][1,2,4]triazin-7-yl)-5-cyano-3,4-dihydroxytetrahydrofuran-2-yl)methoxy)(4-(tert-butyl)phenoxy)phosphoryl)-L-alaninate] was 73.5 nM; that for `CCC(CC)COC(=O)[C@H](C)N[P@](=O)(OC[C@H]1O[C@@](C#N)(c2ccc3c(N)ncnn23)[C@H](OC(=O)C(C)C)[C@@H]1OC(=O)C(C)C)Oc1cccc2c1CCCC2` [Example 144, (2R,3R,4R,5R)-2-(4-aminopyrrolo[2,1-f][1,2,4]triazin-7-yl)-2-cyano-5-((((S)—(((S)-1-(2-ethylbutoxy)-1-oxopropan-2-yl)amino)((5,6,7,8-tetrahydronaphthalen-1-yl)oxy)phosphoryl)oxy)methyl)tetrahydrofuran-3,4-diyl bis(2-methylpropanoate)] was 780 nM.
Still for that read-out and setting: the value for `CC(=O)O[C@H]1[C@@H](OC(C)=O)[C@](C#N)(c2ccc3c(N)ncnn23)O[C@@H]1COP(=O)(N[C@@H](C)C(=O)OC1CCCCC1)Oc1ccc(C(C)(C)C)cc1` (stereo partly drawn) [Example 148, (2R,3R,4R,5R)-2-(4-aminopyrrolo[2,1-f][1,2,4]triazin-7-yl)-5-((((4-(tert-butyl)phenoxy)(((S)-1-(cyclohexyloxy)-1-oxopropan-2-yl)amino)phosphoryl)oxy)methyl)-2-cyanotetrahydrofuran-3,4-diyl Diacetate] was 59.3 nM; that for `CC(C)C(=O)O[C@H]1[C@@H](OC(=O)C(C)C)[C@](C#N)(c2ccc3c(N)ncnn23)O[C@@H]1COP(=O)(N[C@@H](C)C(=O)OC1CCCCC1)Oc1ccc(C(C)(C)C)cc1` (stereo partly drawn) [Example 149, (2R,3R,4R,5R)-2-(4-aminopyrrolo[2,1-f][1,2,4]triazin-7-yl)-5-((((4-(tert-butyl)phenoxy)(((S)-1-(cyclohexyloxy)-1-oxopropan-2-yl)amino)phosphoryl)oxy)methyl)-2-cyanotetrahydrofuran-3,4-diyl bis(2-methylpropanoate)] was 99.4 nM.
Consider `COCCOC(=O)[C@H](C)NP(=O)(OC[C@H]1O[C@@](C#N)(c2ccc3c(N)ncnn23)[C@H](OC(C)=O)[C@@H]1OC(C)=O)Oc1ccc(C(C)(C)C)cc1` (stereo partly drawn) [Example 150, (2R,3R,4R,5R)-2-(4-aminopyrrolo[2,1-f][1,2,4]triazin-7-yl)-5-((((4-(tert-butyl)phenoxy)(((S)-1-(2-methoxyethoxy)-1-oxopropan-2-yl)amino)phosphoryl)oxy)methyl)-2-cyanotetrahydrofuran-3,4-diyl Diacetate], for which a half-maximal effect (EC50) was put at 78.2 nM.
